Test results published in US12686809B2, “Methods and formulations for treating oil-containing porous media for oil recovery” (UNIVERSITY OF WYOMING, priority 2020, dated 2026).

Assays:
Assay type in all cases: physicochemical
[1] = Critical micelle concentration by surface tension (pendant drop) at ambient conditions; conditions: surface tension against air
Protocol: Pendant drop method: The pendant drop method was mainly utilized when the density of the suspended phase is higher than that of the bulk phase. The same device as that used in the captive/rising bubble method is used for the pendant drop method. The method consists of a drop suspended from a needle to determine interfacial and surface tension of liquid/liquid and liquid/gas systems. The critical micelle concentration (CMC) of cationic surfactants was measured using surface tension measurements between the surfactant solutions and air at ambient conditions. […] Therefore, generally, the measurements were performed at a concentration above CMC (about 0.1 wt %), which is the one typically used in the field.
CMC measurements were performed to, e.g., investigate the effect of the hydrophobic chain length on the behavior of cationic surfactant molecules at the interface. […] As a baseline, the surface tension of blank brine was measured to be about 75.4 mN/m.
FIGS. 18A-18C show exemplary data for CMC measurements of surfactants with chloride heads and various alkyl chain lengths and depicting the variations of surface tension with concentration. Specifically, FIGS. 18A, 18B, and 18C show exemplary surface tension data for DTAC, CTAC, and TSAC.

[2] = IFT between surfactant solutions and reservoir crude oil at ambient conditions (spinning drop); conditions: ~0.1 wt % in blank brine
Protocol: Spinning drop method: The spinning drop method was utilized to measure ultra-low IFT values. The instrumentation included a KRÜSS Spinning Drop Tensiometer was employed and the spinning drop method was performed as follows. A crude oil droplet was launched from a capillary plug into a capillary tube filled with the surfactant solution. While the glass capillary tube was rotating, the software-controlled instrument measured the IFT between oil and brine by analyzing the drop shape which depends on the balance between interfacial and centrifugal forces. At low rotational speeds, the IFT is the dominating force and the droplet is spherical in shape. In this case the software uses Young-Laplace equation to calculate IFT. When the angular velocity is high, the droplet is elongated (length is at least 4 times the diameter) and Vonnegut's equation is used to calculate the IFT.
(§1) Measurement of the IFT between surfactant solutions/reservoir oil at ambient conditions were first performed to, e.g., examine the impact of the hydrophobic chain length on the interfacial properties of cationic surfactants. For these measurements, a KRÜSS Spinning Drop Tensiometer was used.

[3] = Density difference between surfactant solution and crude oil; conditions: ~0.1 wt % in blank brine vs reservoir crude oil; ambient conditions
Protocol: Density: The density of the two phases (oil and brine; or oil and surfactant solution) was measured at atmospheric pressure and 22° C. using a DMA45 density meter from Anton Paar. The density of the two phases was also measured at reservoir conditions (120° C., 6000 psi) using an in-line density meter (DMA HPM, Anton Paar).
as §1

[4] = Krafft and cloud point temperatures / solution cloudiness at ambient conditions; conditions: about 0.1 wt % in blank brine; for solution clarity/cloudiness (in words): about 22° C., ambient conditions
Protocol: Krafft and cloud point temperatures at ambient conditions: At ambient conditions, the Krafft point and cloud point temperatures were determined as follows. Fresh brine solutions containing about 0.1 wt % of surfactant solution were prepared and poured into 25 ml glass vials. The vials were capped and placed upright in a water bath and/or heater at an initial temperature of about 22° C. […] For each increment, it typically took at least 20 minutes for the brine to reach thermal equilibrium (temperature stabilization) with the water bath. The cloud and Krafft points were determined visually by recording the temperatures at which cloudiness was observed or disappeared. Images of the brine solutions were captured after each temperature stabilization.
The effect of the hydrophobic (alkyl) chain length on the stability and aqueous solubility/cloudiness of cationic surfactants was examined by measuring Krafft points at elevated pressure and temperature were performed. FIG. 15 is a series of exemplary images of solutions of cationic surfactants having a bromide head with increasing carbon atom numbers from left to right—DTAB (left panel), CTAB (center panel), and TODAB (right panel). For these tests, each surfactant was made into a surfactant solution (about 0.1 wt % in blank brine). The images were captured at about 22° C.
(left panel) and about 75° C. (right panel).
(§2) The cloud points of certain nonionic surfactants were measured at high pressure (about 6,000 psi) and temperature. […] (center panel) and about 99.9° C. (right panel), at a pressure of about 6,000 psi.

[5] = Krafft and cloud point temperatures at reservoir conditions (IFT cell, 6,000 psi); conditions: about 0.1 wt % in blank brine; about 6,000 psi
Protocol: as §2
(right panel), at a pressure of about 6,000 psi.

[6] = Microemulsion phase behavior of surfactant solution/crude oil; conditions: for phase behavior (in words): about 0.1 wt % in blank brine/crude oil 1:1, about 80° C. versus ambient; for volume of surfactant phase formed between oil and brine: about 80° C.
Protocol: Microemulsion phase behavior: The microemulsion phase behavior of surfactants with different structures was investigated with respect to temperature. The effect of surfactant hydrophobic chain length on phase behavior was examined at ambient temperature (about 22° C.) and at elevated temperature (about 80° C.). For these experiments, glass pipettes were filled with brine/crude oil at a ratio of about 1:1 or surfactant solution/crude oil at a ratio of about 1:1. The pipettes were then sealed with a torch and shaken at the speed of about 250 rpm for about 24 hours (h). The pipettes were then monitored for several days and images were recorded.
Microemulsion phase behavior tests can generally be utilized to characterize surfactant stability. The phase behavior of surfactants can depend on distinct parameters such as temperature, surfactant concentration, and/or brine salinity. The effect of temperature on phase behavior was systematically investigated for various surfactants. Here, the phase behavior test was first performed on a pipette containing blank brine and the crude oil.
FIG. 13 is a series of exemplary images showing the phase behavior of cationic surfactants with a chloride head—TOAC, DTAC, CTAC, and TSAC—at ambient temperatures (left panel) and at about 80° C. (right panel). FIG. 14 is each a series of exemplary images showing the phase behavior of cationic surfactants with a bromide head—TOAB, DTAB, CTAB, and TODAB—at ambient temperatures (left panel) and at about 80° C. (right panel). For these tests, each surfactant was made into a surfactant solution (about 0.1 wt % in blank brine).

[7] = IFT between surfactant solutions and reservoir oil at reservoir conditions; conditions: about 100° C. and about 1,000 psi
Protocol: Captive/rising bubble method: The captive/rising bubble method was utilized to measure the dynamic IFT and contact angle at reservoir conditions. This method was performed as follows. The lighter phase was injected through a needle to form a bubble inside the heavier phase. The IFT between the two phases was calculated from the shape of the bubble using the Young-Laplace equation through Axisymmetric Drop Shape Analysis (ADSA). The state-of-the-art interfacial tension and contact angle (IFT/CA) apparatus adopted for the measurements is described and used by S. Saraji et al., Wettability of Supercritical Carbon Dioxide/Water/Quartz Systems: Simultaneous Measurement of Contact Angle and Interfacial Tension at Reservoir Conditions, Langmuir, 29 (2013) 6856-6866. This experimental setup can operate at elevated temperature (up to 200° C.) and pressure (up to 8000 psi). […] For contact angle measurement, a droplet was injected from the needle onto the solid substrate and monitored by capturing several images with time and analyzing them using ImageJ software.
Pendant drop method: The pendant drop method was mainly utilized when the density of the suspended phase is higher than that of the bulk phase. […] The critical micelle concentration (CMC) of cationic surfactants was measured using surface tension measurements between the surfactant solutions and air at ambient conditions. […]

Compound	CMC [1]	γ (interfacial tension surfactant solution/reservoir oil) [2]	Δρ (change in density) [3]	solution clarity/cloudiness (in words) [4]	temperature at which the solution became and stayed clear ([4]; heated while stirring, ambient pressure)	Krafft point [5]	phase behavior (in words) [6]	volume of surfactant phase formed between oil and brine [6]	IFT reduction relative to the blank brine [7]
CCCCCCCCCCCC[N+](C)(C)C.[Cl-] [DTAC, Dodecyltrimethylammonium chloride]	about 0.005 wt %	1.6 mN/m	0.3826 g/mL						
CCCCCCCCCCCCCCCC[N+](C)(C)C.[Cl-] [CTAC, Cetyltrimethyl ammonium chloride]	about 0.003 wt %	0.11 mN/m	0.3834 g/mL						
CCCCCCCCCCCCCCCCCC[N+](C)(C)C.[Cl-] [TSAC, Trimethyloctadecylammonium chloride]	about 0.001 wt %		0.3829 g/mL	cloudiest	about 75 °C	about 40 °C	poor solubility	about 0.1 cm^3	
CCCCCCCCCCCC[N+](C)(C)C.[Br-] [DTAB, Dodecyltrimethylammonium bromide]		1.1 mN/m	0.3835 g/mL						
CCCCCCCC[N+](C)(C)C.[Cl-] [TOAC, Trimethyloctylammonium chloride]		5.05 mN/m	0.3822 g/mL	clearest			less influenced by temperature		
CCCCCCCCCCCCCCCC[N+](C)(C)C.[Br-] [CTAB, Hexadecyltrimethylammonium bromide]		0.15 mN/m	0.382 g/mL						
CCCCCCCC[N+](C)(C)C.[Br-] [TOAB, Trimethyloctylammonium bromide]		8.4 mN/m	0.3823 g/mL	already clear at ambient conditions			less influenced by temperature		about 7 mN/m
CCCCCCCCCCCCCCCCCC[N+](C)(C)C.[Br-] [TODAB, Trimethyloctadecylammonium bromide]		0.07 mN/m	0.3831 g/mL				poor solubility	about 0.1 cm^3	
